Key:
Assay in all cases: COMPOUND A In Vitro Assay
Format in all cases: cell-based
SW480 = details: Homo sapiens, Intestine, large, colon, TP53 Mutant
Procedure, shortened: (§1)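 Cell lines from a broad panel of human tumour types were treated with the MDM2 antagonist RG7112 in high-throughput screens to derive IC50 values. Lines with IC50<=1 were called sensitive, and those with IC50>=10 resistant.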

DMS 114 = details: Homo sapiens, Lung, TP53 Mutant
Procedure, shortened: as §1

RL95-2 = details: Homo sapiens, Uterus, endometrium, TP53 Mutant
Procedure, shortened: as §1

K-562 = details: Homo sapiens, K562, Bone marrow, TP53 Mutant
Procedure, shortened: as §1

SH-SY5Y = details: Homo sapiens
Procedure, shortened: as §1

NCI-H1568 = details: Homo sapiens, tissue NA, TP53 Mutant
Procedure, shortened: as §1

ME-180 = details: Homo sapiens, Cervix, TP53 Wild type
Procedure, shortened: as §1

MDA-MB-453 = details: Homo sapiens, Breast, mammary gland, TP53 Mutant
Procedure, shortened: as §1

KMS-12-PE = details: Homo sapiens, Plasma, TP53 Mutant
Procedure, shortened: as §1

Huh-7 = details: Homo sapiens, Liver, TP53 Mutant
Procedure, shortened: as §1

NCI-H2009 = details: Homo sapiens, Lung, TP53 Mutant
Procedure, shortened: as §1

Raji = details: Homo sapiens, Lymphocyte B, TP53 Mutant
Procedure, shortened: as §1

NCI-H1975 = details: Homo sapiens, Lung, TP53 Mutant
Procedure, shortened: as §1

NB-4 = details: Homo sapiens, Myeloblast, TP53 Mutant
Procedure, shortened: as §1

SK-MEL-30 = details: Homo sapiens, Skin, TP53 Mutant
Procedure, shortened: as §1

NCI-H1666 = details: Homo sapiens, Lung, TP53 Wild type
Procedure, shortened: as §1

BFTC-905 = details: Homo sapiens, Urinary, bladder, TP53 Mutant
Procedure, shortened: as §1

KG-1a = details: Homo sapiens, Bone marrow, TP53 Mutant
Procedure, shortened: as §1

ES2 = details: Homo sapiens, ES-2, Ovary, TP53 NA
Procedure, shortened: as §1

NKM-1 = details: Homo sapiens
Procedure, shortened: as §1

SW1116 = details: Homo sapiens, SW 1116, Intestine, large, colon, TP53 Mutant
Procedure, shortened: as §1

VCaP = details: Homo sapiens, Prostate, TP53 Mutant
Procedure, shortened: as §1

NCI-H187 = details: Homo sapiens, Lung, TP53 Mutant
Procedure, shortened: as §1

AN3 CA = details: Homo sapiens, Uterus, endometrium, TP53 Mutant
Procedure, shortened: as §1

NIH:OVCAR-3 = details: Homo sapiens, Ovary, TP53 Mutant
Procedure, shortened: as §1

PC-13 = details: Homo sapiens, Lung, TP53 Mutant
Procedure, shortened: as §1

HCT116 = details: Homo sapiens, HCT-116, Intestine, large, colon, TP53 Wild type
Procedure, shortened: as §1

TCCSUP = details: Homo sapiens, TCC-SUP, Urinary, bladder, TP53 Mutant
Procedure, shortened: as §1

MCF7 = details: Homo sapiens
Procedure, shortened: as §1

ACHN = details: Homo sapiens
Procedure, shortened: as §1

SW579 = details: Homo sapiens, Thyroid gland, TP53 Mutant
Procedure, shortened: as §1

SCC-15 = details: Homo sapiens, Tongue, TP53 Mutant
Procedure, shortened: as §1

NCI-H2030 = details: Homo sapiens, Lung, TP53 Mutant
Procedure, shortened: as §1

NCI-H661 = details: Homo sapiens, Lung, TP53 Mutant
Procedure, shortened: as §1

IM-9 = details: Homo sapiens
Procedure, shortened: as §1

HCC1187 = details: Homo sapiens, Breast, mammary gland, TP53 Mutant
Procedure, shortened: as §1

With `CCOc1cc(C(C)(C)C)ccc1C1=N[C@@](C)(c2ccc(Cl)cc2)[C@@](C)(c2ccc(Cl)cc2)N1C(=O)N1CCN(CCCS(C)(=O)=O)CC1` [COMPOUND A] the IC50 (SW480) was 12 µM, the IC50 (DMS 114) was 10 µM and the IC50 (RL95-2) was 9.3 µM. It also gave an IC50 (K-562) of 16 µM, an IC50 (SH-SY5Y; Brain, TP53 Wild type) of 0.75 µM and an IC50 (SH-SY5Y; SH-SY5Y cells) of 0.8 µM. It also gave an IC50 (NCI-H1568) of 9.6 µM, an IC50 (ME-180) of 9.3 µM and an IC50 (MDA-MB-453) of 20 µM. For the same compound, the IC50 (KMS-12-PE) was 5.3 µM, the IC50 (Huh-7) was 10 µM and the IC50 (NCI-H2009) was 9.9 µM. The IC50 (Raji) was 3 µM, the IC50 (NCI-H1975) was 16 µM and the IC50 (NB-4) was 4.7 µM. For the same compound, the IC50 (SK-MEL-30) was 19 µM, the IC50 (NCI-H1666) was 13 µM and the IC50 (BFTC-905) was 19 µM. It also gave an IC50 (KG-1a) of 9 µM, an IC50 (ES2) of 3.3 µM and an IC50 (NKM-1; NKM-1, Lymphocyte, TP53 Wild type) of 0.32 µM. It also gave an IC50 (NKM-1; NKM-1 cells) of 0.3 µM, an IC50 (SW1116) of 12 µM and an IC50 (VCaP) of 13 µM. It also gave an IC50 (NCI-H187) of 15 µM, an IC50 (AN3 CA) of 18 µM and an IC50 (NIH:OVCAR-3) of 17 µM. It also gave an IC50 (PC-13) of 14 µM, an IC50 (HCT116) of 0.5 µM and an IC50 (TCCSUP) of 16 µM. For the same compound, the IC50 (MCF7; MCF7, MCF7, Breast, mammary gland, TP53 Wild type) was 0.75 µM, the IC50 (MCF7; MCF7, MCF7 cells) was 0.8 µM and the IC50 (ACHN; ACHN cells) was 0.3 µM. It also gave an IC50 (ACHN; Kidney, TP53 Wild type) of 0.29 µM, an IC50 (SW579) of 16 µM and an IC50 (SCC-15) of 20 µM. The IC50 (NCI-H2030) was 9.2 µM, the IC50 (NCI-H661) was 11 µM and the IC50 (IM-9; IM-9, IM-9, Lymphocyte B, peripheral blood, TP53 Wild type) was 0.14 µM. For the same compound, the IC50 (IM-9; IM-9, IM-9 cells) was 0.1 µM and the IC50 (HCC1187) was 12 µM.
